Measured values reported in US20220282217A1, “COMPOSITIONS AND METHODS FOR PREPARING T CELL COMPOSITIONS AND USES THEREOF” (priority 2019, published 2022).
“And” between values parts separate entries of the source, which are not always exact repeats. Equal entries are not always repeated. Where two headings read alike, the source gives them in different places. One block for each compound: values may come before it. Where a SMILES comes first, the peptide text is derived from it.

Assays:
[1] = target: HLA-A02.01 (Homo sapiens, UniProt P04439, D140Y/D185E/D98H/E176V/E277Q/G131W/G231S/I119V/I121R/I166T/I218V/L300P/L318F/N151K/N90K/P208A/P217A/Q86G/Q94H/R138H/R169H/T345S); assay: Class I MHC peptide binding affinity (displacement of radiolabeled reference peptide); settings: allele A02.01, (nM))
Method in brief: (§1)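 Read-out: radioactivity of reference peptide retained on MHCI, separated from free label by gel-filtration size exclusion. Competing peptides are titrated against the preformed complexes and incubated two days beforehand.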

[2] = target: T1, HLA-B07.02 (Homo sapiens, UniProt P01889); assay: Class I MHC peptide binding stability (pMHC-I dissociation, 125I-labeled light chain); design: made in house; host or cells: E. coli; settings: Allele B07.02
[3] = target: T2, HLA-A02.01 (Homo sapiens, UniProt P04439, D140Y/D185E/D98H/E176V/E277Q/G131W/G231S/I119V/I121R/I166T/I218V/N151K/N90K/P208A/P217A/Q86G/Q94H/R138H/R169H); assay: as above; settings: allele A02.01
T2 construct: made in house; host or cells: E. coli

[4] = target: T1, HLA-B07.02; assay: Class I MHC peptide binding affinity (displacement of radiolabeled reference peptide); settings: Allele B07.02; read-out: Observed Affinity (IC50; (nM))
[5] = test system: 293T cells transduced with GATA3 neoORF, expressing the HLA of interest; assay: Presentation of GATA3 neoantigens: HLA-eluted peptides by targeted MS/MS (PRM) (Table 14); assay type: cell-based, human
Protocol: To assess whether antigens could be processed and presented from the larger polypeptide context, peptides eluted from HLA molecules isolated from cells expressing the genes of interest were analyzed by tandem mass spectrometry (MS/MS).
Between 50 and 700 million of the transduced cells expressing peptides encoded by the GATA3 neoORF sequence were cultured and peptides were eluted from HLA-peptide complexes using an acid wash. Eluted peptides were then analyzed by targeted MS/MS using PRM. Spectral comparison between peptides derived from GATA3 neoORF and corresponding synthetic peptides were performed to confirm each detection.

[6] = target: HLA-B08.01 (Homo sapiens, UniProt P01889, A93T/A95T/D138N/E176V/E187T/K202T/Q94N/R180D/S35A/V36M/Y33D/Y91F); assay: Class I MHC peptide binding affinity (displacement of radiolabeled reference peptide)
Method in brief: as §1

[7] = test system: HLA-A24.02; assay: Class I MHC peptide binding stability (pMHC-I dissociation, 125I-labeled light chain); design: species or system human; settings: allele A24.02
[8] = target: HLA-A24.02; assay: Class I MHC peptide binding affinity (displacement of radiolabeled reference peptide); design: species or system human; settings: allele A24.02; read-out: Observed Affinity (IC50; (nM))
[9] = read-out: Observed Affinity (IC50
[10] = GATA3 neoORF transduced 293T cells expressing HLA-A*02:01 protein

Structure (SMILES): CSCC[C@H](NC(=O)[C@H](CC(C)C)NC(=O)[C@@H](N)CCCCN)C(=O)N[C@@H](CC(C)C)C(=O)N[C@@H](CC(C)C)C(=O)N[C@@H](CCCNC(=N)N)C(=O)N[C@@H](CC(C)C)C(=O)N[C@@H](CC(N)=O)C(=O)N[C@@H](CC(C)C)C(=O)O
IC50 [1, 9]: 17 nM and 2.6 nM
Stability (T1/2 (h)) [2]: 1.5 h
Stability (T1/2 (h)) [3]: 16.9 h

IC50 [4]: 3 nM
Stability (T1/2 (h)) [2]: 3.7 h
Structure (SMILES): CC(C)C[C@H](N)C(=O)N1CCC[C@H]1C(=O)N[C@@H](CCCNC(=N)N)C(=O)N[C@@H](CCCCN)C(=O)N1CCC[C@H]1C(=O)N[C@H](C(=O)N[C@@H](CCCNC(=N)N)C(=O)N[C@@H](C)C(=O)N[C@@H](C)C(=O)N[C@H](C(=O)O)[C@@H](C)O)[C@@H](C)O (H-LPRKPTRAAT-OH; N-terminus and C-terminus assumed)

Structure (SMILES): CC(C)C[C@H](NC(=O)[C@H](C)NC(=O)[C@@H](NC(=O)[C@H](CCCNC(=N)N)NC(=O)[C@H](CO)NC(=O)[C@H](CC(=O)O)NC(=O)[C@H](CO)NC(=O)[C@H](CC(C)C)NC(=O)[C@@H](N)CCCCN)[C@@H](C)O)C(=O)O [KLSDSRTAL]
Stability (T1/2 (h)) [2]: 6.8 h
Stability (T1/2 (h)) [3]: 2.8 h

Structure (SMILES): CC[C@H](C)[C@H](NC(=O)[C@H](CCCCN)NC(=O)[C@H](CO)NC(=O)[C@@H](N)CCC(=O)O)C(=O)N[C@@H](CCSC)C(=O)N[C@@H](Cc1ccccc1)C(=O)N[C@@H](C)C(=O)N[C@H](C(=O)N[C@@H](CC(C)C)C(=O)O)[C@@H](C)O
detected by mass spectrometry (peptide eluted from HLA-peptide complexes) ([5]; GATA3 neoORF transduced 293T cells expressing HLA-B*08:01 protein): detected

Structure (SMILES): CC(C)C[C@H](NC(=O)[C@H](CC(=O)O)NC(=O)[C@H](CO)NC(=O)[C@H](CCC(N)=O)NC(=O)[C@H](CCC(N)=O)NC(=O)[C@H](CCC(N)=O)NC(=O)[C@H](CCC(N)=O)NC(=O)[C@H](CCC(N)=O)NC(=O)[C@@H](N)Cc1ccc(O)cc1)C(=O)O (H-YQQQQQSDL-OH; N-terminus and C-terminus assumed)
IC50 ([1]; Observed Affinity (IC50): 799 nM
IC50 [6]: 18.9 µM
Stability (T1/2 (h)) [3]: 0.4 h

Structure (SMILES): CC(C)C[C@H](NC(=O)[C@H](C)NC(=O)[C@H](CC(C)C)NC(=O)[C@H](Cc1c[nH]cn1)NC(=O)[C@@H]1CCCN1C(=O)[C@H](CCC(=O)O)NC(=O)[C@@H]1CCCN1C(=O)[C@H](CC(C)C)NC(=O)[C@@H](N)C(C)C)C(=O)O [VLPEPHLAL] (H-VLPEPHLAL-OH; N-terminus and C-terminus assumed)
detected by mass spectrometry (peptide eluted from HLA-peptide complexes) [5, 10]: detected

IC50 [4]: 8 nM
Stability (T1/2 (h)) [2]: 3 h
Structure (SMILES): CC(C)[C@H](NC(=O)[C@H](CO)NC(=O)[C@@H](NC(=O)[C@@H](NC(=O)[C@H](C)NC(=O)[C@H](C)NC(=O)[C@H](CCCNC(=N)N)NC(=O)[C@@H](NC(=O)[C@@H]1CCCN1C(=O)[C@@H](N)CCCCN)[C@@H](C)O)[C@@H](C)O)C(C)C)C(=O)O (H-KPTRAATVSV-OH; N-terminus and C-terminus assumed)

Structure (SMILES): CC(C)C[C@H](NC(=O)[C@H](CO)NC(=O)[C@H](CCCCN)NC(=O)[C@H](CC(C)C)NC(=O)[C@@H](NC(=O)[C@H](CO)NC(=O)[C@@H]1CCCN1C(=O)[C@H](CC(C)C)NC(=O)[C@@H](N)Cc1ccccc1)[C@@H](C)O)C(=O)O
Stability (T1/2 (h)) [7]: 1 h
IC50 ([1]; Observed Affinity (IC50): 21 nM
IC50 [6]: 1.97 µM
IC50 [8]: 995 nM

Structure (SMILES): CC[C@H](C)[C@H](NC(=O)[C@H](CC(N)=O)NC(=O)[C@H](CCSC)NC(=O)[C@H](Cc1c[nH]cn1)NC(=O)[C@H](CC(N)=O)NC(=O)CNC(=O)[C@H](CC(C)C)NC(=O)[C@@H](N)Cc1ccc(O)cc1)C(=O)N[C@@H](C)C(=O)O (H-YLGNHMNIA-OH; N-terminus and C-terminus assumed)
IC50 ([1]; Observed Affinity (IC50): 117 nM
IC50 [6]: 0.872 µM
Stability (T1/2 (h)) [3]: 0.6 h

Structure (SMILES): CC(C)C[C@H](N)C(=O)N1CCC[C@H]1C(=O)N[C@@H](CCCNC(=N)N)C(=O)N[C@@H](CCCCN)C(=O)N1CCC[C@H]1C(=O)N[C@H](C(=O)N[C@@H](CCCNC(=N)N)C(=O)N[C@@H](C)C(=O)N[C@@H](C)C(=O)O)[C@@H](C)O
Stability (T1/2 (h)) [2]: 5.5 h

Stability (T1/2 (h)) [3]: 21.7 h
Structure (SMILES): CSCC[C@H](NC(=O)[C@@H](N)CO)C(=O)N[C@@H](CC(C)C)C(=O)N[C@H](C(=O)NCC(=O)N1CCC[C@H]1C(=O)N1CCC[C@H]1C(=O)N[C@@H](C)C(=O)N[C@@H](CCCNC(=N)N)C(=O)N[C@H](C(=O)O)C(C)C)[C@@H](C)O
detected by mass spectrometry (peptide eluted from HLA-peptide complexes) [5, 10]: detected

Structure (SMILES): CC(C)C[C@H](N)C(=O)N[C@@H](C)C(=O)N[C@H](C(=O)N[C@@H](CCC(=O)O)C(=O)N[C@@H](CCCCN)C(=O)N[C@@H](CO)C(=O)N[C@@H](CCCNC(=N)N)C(=O)N[C@@H](Cc1c[nH]c2ccccc12)C(=O)N[C@@H](CO)C(=O)NCC(=O)O)[C@@H](C)O (H-LATEKSRWSG-OH; N-terminus and C-terminus assumed)
IC50 ([1]; Observed Affinity (IC50): 23300 nM
IC50 [6]: 46.6 µM

IC50 [4]: 9720 nM
IC50 [1, 9]: 125 nM
Stability (T1/2 (h)) [2]: 0.2 h
Stability (T1/2 (h)) [3]: 0.5 h
Structure (SMILES): CC[C@H](C)[C@H](NC(=O)[C@H](CCCCN)NC(=O)[C@H](C)NC(=O)[C@@H](NC(=O)[C@@H](N)CCCNC(=N)N)C(C)C)C(=O)N[C@@H](C)C(=O)N[C@@H](CC(=O)O)C(=O)N[C@@H](Cc1ccccc1)C(=O)NCC(=O)N[C@@H](CCSC)C(=O)O (H-RVAKIADFGM-OH; N-terminus and C-terminus assumed)

IC50 [1, 9]: 10.6 nM
Structure (SMILES): CSCC[C@H](N)C(=O)N[C@@H](CC(C)C)C(=O)N[C@H](C(=O)NCC(=O)N1CCC[C@H]1C(=O)N1CCC[C@H]1C(=O)N[C@@H](C)C(=O)N[C@@H](CCCNC(=N)N)C(=O)N[C@H](C(=O)O)C(C)C)[C@@H](C)O (H-MLTGPPARV-OH; N-terminus and C-terminus assumed)
detected by mass spectrometry (peptide eluted from HLA-peptide complexes) [5, 10]: detected

Structure (SMILES): CC(C)C[C@H](NC(=O)[C@H](CO)NC(=O)[C@H](CO)NC(=O)[C@H](CCCNC(=N)N)NC(=O)[C@H](CCC(N)=O)NC(=O)[C@H](CC(C)C)NC(=O)[C@@H](NC(=O)[C@H](C)NC(=O)[C@@H](N)Cc1ccccc1)[C@@H](C)O)C(=O)O
detected by mass spectrometry (peptide eluted from HLA-peptide complexes) ([5]; GATA3 neoORF transduced 293T cells expressing HLA-C*03:03 protein): detected

Structure (SMILES): C[C@H](NC(=O)[C@H](CO)NC(=O)[C@H](C)NC(=O)[C@@H]1CCCN1C(=O)[C@H](C)NC(=O)[C@@H]1CCCN1C(=O)[C@H](CCCNC(=N)N)NC(=O)[C@@H]1CCCN1C(=O)[C@@H](N)Cc1c[nH]cn1)C(=O)O
Stability (T1/2 (h)) [2]: 4.9 h

Structure (SMILES): CC[C@H](C)[C@H](NC(=O)[C@H](Cc1ccccc1)NC(=O)[C@H](CCCNC(=N)N)NC(=O)[C@@H]1CCCN1C(=O)[C@H](CC(C)C)NC(=O)[C@@H](N)CO)C(=O)N[C@@H](CC(C)C)C(=O)N[C@@H](CCSC)C(=O)N[C@@H](CCC(=O)O)C(=O)N[C@@H](CC(C)C)C(=O)O
Stability (T1/2 (h)) [7]: 0.2 h
IC50 [1, 9]: 26 nM
IC50 [8]: 2770 nM
Stability (T1/2 (h)) [2]: 0.4 h
Stability (T1/2 (h)) [3]: 0.5 h

Structure (SMILES): CC(C)C[C@H](NC(=O)[C@@H]1CCCN1C(=O)[C@@H]1CCCN1C(=O)[C@@H](NC(=O)[C@H](CO)NC(=O)[C@H](CC(C)C)NC(=O)[C@H](CC(C)C)NC(=O)[C@H](CCC(=O)O)NC(=O)[C@@H](N)Cc1ccccc1)[C@@H](C)O)C(=O)O (H-FELLSTPPL-OH; N-terminus and C-terminus assumed)
IC50 ([1]; Observed Affinity (IC50): 225 nM
IC50 [6]: 3.18 µM

Structure (SMILES): CC(C)C[C@H](N)C(=O)N[C@@H](C)C(=O)N[C@H](C(=O)N[C@@H](CCC(=O)O)C(=O)N[C@@H](CCCCN)C(=O)N[C@@H](CO)C(=O)N[C@@H](CCCNC(=N)N)C(=O)N[C@@H](Cc1c[nH]c2ccccc12)C(=O)N[C@@H](CO)C(=O)O)[C@@H](C)O (H-LATEKSRWS-OH; N-terminus and C-terminus assumed)
IC50 ([1]; Observed Affinity (IC50): 61000 nM
IC50 [6]: 37 µM

Structure (SMILES): CC(C)C[C@H](NC(=O)[C@@H]1CCCN1C(=O)[C@H](CO)NC(=O)[C@H](CCCNC(=N)N)NC(=O)[C@H](CC(C)C)NC(=O)[C@H](CCCCN)NC(=O)[C@H](CCCCN)NC(=O)[C@@H](N)CC(C)C)C(=O)O (H-LKKLRSPL-OH; N-terminus and C-terminus assumed)
IC50 [6]: 0.0006 µM

Stability (T1/2 (h)) [7]: 0.2 h
IC50 [4]: 684 nM
IC50 [1, 9]: 728 nM
IC50 [8]: 16300 nM
Stability (T1/2 (h)) [3]: 0.3 h
Structure (SMILES): CC(C)C[C@H](NC(=O)[C@H](C)N)C(=O)N[C@@H](CO)C(=O)N[C@@H](C)C(=O)N[C@@H](CO)C(=O)N[C@@H](CC(N)=O)C(=O)N[C@@H](CO)C(=O)N[C@@H](CS)C(=O)N[C@@H](Cc1ccccc1)C(=O)O (H-ALSASNSCF-OH; N-terminus and C-terminus assumed)
